Measurements as given in a melting point compilation (Tetko et al.; mined from patent text by program, amines drawn as free bases though some values may be those of a salt).

Row | SMILES | melting point [°C]
1 | O=C(c1ccc(Cl)cc1)c1ccc2[nH]c(=O)cc(C(=O)O)c2c1 | > 260
2 | OC1(c2ccccc2)CCN(CCN2CCN(Cc3cc(C(F)(F)F)cc(C(F)(F)F)c3)CC2c2ccc(Cl)c(Cl)c2)CC1 (stereo not drawn) | 71 to 72
3 | Nc1ccc(Sc2ccnc(N)c2)cc1 | 141 to 143
4 | Cc1ccc(CC#N)c(OCc2ccc(OCc3nc(-c4ccccc4)oc3C)cc2)n1 | 122 to 123
5 | CCCCOc1cc(C(=O)NCC#N)cc(Cl)n1 | 72 to 73
6 | CC(C)c1c(O)ccc2c1oc1ccc(C#N)cc12 | 180 to 182
7 | CS(=O)(=O)OCCCCCc1ccc(OCc2coc(/C=C/c3ccccc3)n2)cc1 | 105 to 106
8 | CN1C(=O)CC2(Cc3cc4ccccc4n3C2)C1=O (stereo not drawn) | 154 to 156
9 | COC(=O)c1ccccc1-c1ncc(-c2cccc(C(F)(F)F)c2)o1 | 92.5 to 94
10 | Oc1cc(CN/C=C2\CN=Cc3ccc(I)cc32)ccc1OC(F)F | 254 to 255
11 | C#CCOc1cc(Oc2c(F)cccc2F)ncn1 | 67.2
12 | c1ccc2c(OCCNCCCc3c[nH]c4ccccc34)cccc2c1 | 119 to 120
13 | CCOC(=O)C1=NN(c2ccc([N+](=O)[O-])cc2)C2(N3CCCC3)CCCC12 (stereo not drawn) | 118
14 | C[C@@H](Cn1ncc2ccc(O)c(Br)c21)O[Si](C)(C)C(C)(C)C | 103 to 105
15 | OCc1cn(-c2cccc(Cl)c2)cn1 | 78 to 79
16 | CCOC(=O)C(C)c1ccc(-c2cn3cccnc3n2)cc1 (stereo not drawn) | 171 to 173
17 | O=C(O)c1cn(CCc2ccc(O)cc2)c2cc(C3CC3)nn2c1=O | 265 to 270
18 | CCOC(=O)C1(O)C=CN=c2ccc3c(c21)NCN=3 (stereo not drawn) | 315 to 316
19 | O=C1NCc2c1cc1ccc3c(c1c2-c1ccc(F)cc1)OCC3 | 302 to 305
20 | O=C(O)Cc1ccc(NC(=O)c2ccc(Cl)cc2)cc1 | 252
21 | O=Cc1ccc(-c2ccc(Br)cn2)cc1 | 120 to 121
22 | CON=C(C)c1c(C)sc(C)c1CS(=O)(=O)C1=NOC(C)(C)C1 | 95 to 96
23 | CCCCSc1cc2nc3ccccc3sc-2cc1=O | 133
24 | Cc1cc(-c2nnc3cc(C(C)(C)C)c(OCc4cn(C)nn4)nn23)no1 | 219 to 221
25 | CCOC(=S)Nc1ccccc1NC(=S)NC(=O)OC | 172
26 | Fc1ccccc1C1=NCC(=S)Nc2ccc(I)cc21 | 242 to 244

Row | SMILES | melting point [°C]
27 | CC(C)OC(=O)OCOC(=O)[C@H]1[C@@H]2CC[C@@](N)(C(=O)O)[C@@H]21 | 196 to 197
28 | Cc1ccc(S(=O)(=O)N2C[C@@H](Cl)C[C@@H]2CCl)cc1 | 103 to 105
29 | Cc1nc(N2CCN(Cc3ccccc3)C2=O)sc1C(=O)NCc1cccnc1 | 153 to 154
30 | COc1cc(OC)c(C(=O)C=Cc2ccc(C)cc2)c(OP(=O)(O)O)c1 | 81 to 83
31 | CC(C)(C)OC(=O)c1ncn2c1cc(N1CCN(C(=O)OC(C)(C)C)CC1)c1cc(Cl)ccc12 | 246 to 247
32 | Cc1noc(NS(=O)(=O)c2nccs2)c1Cl | 171 to 173
33 | CNC(=O)OC1CCC2(CO2)C(C2(C)OC2CC=C(C)C)C1OC (stereo not drawn) | 92 to 93
34 | O=C1CCC(C(=O)OC(C(=O)c2ccccc2)c2ccccc2)N1 (stereo not drawn) | 123 to 131
35 | CC1CN(Cc2ccccc2)CC1=NO (stereo not drawn) | 85 to 94
36 | CCOC(=O)[C@H]1O[C@@H]1C(=O)N[C@@H](COCC(C)C)CC(C)C | 60 to 63
37 | Clc1ccc2[nH]cc(C3=CCNCC3)c2c1 | 177
38 | NC(=O)CC[C@H](NCc1ccccc1C(=O)O)C(=O)O | 132 to 133
39 | CN1CCC(C2(O)c3sccc3CCn3ncnc32)CC1 (stereo not drawn) | 158
40 | Cc1nc(N)nc(N)c1N1CCN(c2ccc(C=NOCC(=O)OCCc3ccccc3)cc2)CC1 | 255 to 257
41 | CC(=O)c1ccc(OCCCOc2ccc(C(=O)C(=O)O)cc2)cc1O | 133 to 135
42 | Cc1ccc2c(c1)C(=O)N(C)Cc1c(C(N)=O)ncn1-2 | 290 to 294
43 | CCCOc1ccccc1C1C(C(=O)OCC)=C(CCC)Nc2n[nH]cc21 (stereo not drawn) | 205
44 | CCCn1nc(SCCCCCCC(=O)O)c(C(=O)O)c1Cc1cc2c(cc1Cl)OCO2 | 180
45 | O=C(O)C(O)(c1cccs1)c1cccs1 | 84
46 | CC(C)Oc1ccc(-c2cccs2)cc1C=O | 186 to 187
47 | Cn1cc(C(=O)O)c(=O)c2cc3cc(F)c(N4CCN(O)CC4)c(F)c3nc21 | 285 to 288
48 | O=C(CCl)Nc1cscn1 | 115 to 119
49 | Clc1ccc(-c2cncn3ncnc23)cc1 | 154 to 155
50 | CN1C2C=C(c3cc4ccccc4s3)CC1CCC2 (stereo not drawn) | 91.3 to 93.5
51 | COc1ccc(C2Cc3ccccc3N=C(C)N2C)cc1 (stereo not drawn) | 130 to 132
52 | CC(C)c1nc(CO)n(CC(=O)c2ccccc2)c1Sc1cc(Cl)cc(Cl)c1 | 205 to 211

Now from value to compound:

Row | melting point [°C] | SMILES
53 | 286 | CCc1nc(NC(=O)c2cnn3c(C(F)F)cc(-c4ccc(C(F)(F)F)cc4)nc23)sc1S(=O)(=O)N1CCC(O)C1 (racemic)
54 | 110 to 120 | CC(=O)Nc1cc([N+](=O)[O-])ccc1OCCCN
55 | 135 to 136 | CC1(C)C(=O)Oc2ccc3ccc(Cn4ccnc4)cc3c21
56 | 152 to 153 | O=C1C(c2ccccc2)=C(c2ccccc2)C(=O)N1c1ccccc1C(F)(F)F
57 | 285 to 290 | Cc1ccc2c(O)c(CS(C)(=O)=O)cnc2c1
58 | 241 to 243 | COc1ccc(C#N)cc1-c1cc(-c2cccc(C#N)c2)on1
59 | 195 to 197 | CCCNC(=N)NC(=O)NCc1ccccn1
60 | 141 to 143 | O=C1c2ccccc2C(=O)N1Cc1ccc(/C=C/C(c2cc(Cl)cc(Cl)c2)C(F)(F)F)cc1Cl (stereo not drawn)
61 | 213 to 215 | Cn1c(/C=C/C(=O)Cl)c(-c2ccccc2)c2ccccc2c1=O
62 | 113 to 114 | COC(=O)c1c(-c2ccc(F)cc2)ccc2ccccc12
63 | 169 to 172 | CS(=O)(=O)c1ccc(C(=O)O)c(Cl)c1CC#N
64 | 158 to 160 | O=[N+]([O-])c1cccc(Oc2ccc(Oc3cccc([N+](=O)[O-])c3)cc2)c1
65 | 208 to 210 | CC(=O)Oc1ccc(-c2cc3ccc(OC(C)=O)cc3s2)cc1
66 | 122 to 124 | COc1ccc(C2=NN(c3ccccc3)C(=O)[C@H]3CCCC[C@@H]23)cc1OC (relative stereo)
67 | 111 to 113 | CC(=O)OC(n1cc(C#N)c(-c2cccc(Cl)c2Cl)c1)C(Cl)(Cl)Cl (stereo not drawn)
68 | 93 to 95 | C=CCOc1cc(NC(=O)OC(C)(C)C)c([N+](=O)[O-])cc1I
69 | 107 to 108 | CC(C)c1ccc(-c2nn(C)c(=O)c3ccccc23)cc1
70 | 175 to 185 | O=C(O)c1cccc(-c2ccc3c(c2)C(Oc2cccc(C(F)(F)F)c2)CC3)c1 (stereo not drawn)
71 | 117 to 119 | O=C(NCCCc1ccncc1)N(CCCCC(F)(F)F)CCC12CC3CC(CC(C3)C1)C2
72 | 228 to 229 | O=C(c1ccco1)c1cnn2c(-c3cccnc3)ccnc12
73 | 96 to 98 | CCC(C#Cc1cccc(Oc2ccccn2)c1)N(O)C(N)=O (stereo not drawn)
74 | 98 | COc1cc2cc(F)cnc2cc1F
75 | 106 to 107 | CCCCCCn1c(=O)n(C)c(=O)c2cnn(C)c21
76 | > 260 | O=C(O)c1ccc2oc(-c3ccc(C(F)(F)F)cc3)cc2c1
77 | 78 to 80 | COc1ccc(N)c(C2OCCO2)c1OC
78 | 108 to 111 | Nc1nc(NC2CCCCC2)nc2c1ncn2C1C=CCCC1 (stereo not drawn)

Row | melting point [°C] | SMILES
79 | 216 to 217 | O=C(Cl)c1ccc(-c2ccc(C(=O)Cl)cn2)nc1
80 | 137 to 138 | Cc1ccc(OC(=CC(=O)c2ccc(Br)cc2)C(=O)c2ccc(Br)cc2)cc1
81 | > 220 | CC1=NOC(c2c(S(C)(=O)=O)ccc(C(=O)c3cnn(C4CC4)c3O)c2Cl)C1 (stereo not drawn)
82 | 165 to 168 | COc1cc2c(c3c1OC(C)(C)C3)C(c1cccc(-c3ccc(N)nc3)c1)=NC(C)(C)C2
83 | 83 to 84 | COc1ccc2[nH]ccc2c1OCc1ccccc1
84 | 92 to 93.5 | CCCCCCCc1ccnc2c(O)cccc12
85 | 104 to 110 | COC(=O)[C@@H](O)[C@@H](OC(C)=O)[C@H](OC(C)=O)[C@H](C=O)OC(C)=O
86 | 211 to 214 | Nc1nc(Cl)cnc1-c1cc(Cl)cc(Cl)c1Cl
87 | 114 to 116 | CCCc1cc(Cl)c2sc(Cc3ccc(OC)cc3)c(C)c2c1O
88 | > 260 | NC1=NC(N)(c2ccc(S(=O)(=O)NN3CCOCC3)cc2)NC=N1 (stereo not drawn)
89 | 155 to 159 | O=C(O)c1ccc(OCCCOc2ccccc2)cc1C(=O)O
90 | 126 to 128 | CCC(CSC#N)Nc1ccc(Cl)cc1[N+](=O)[O-] (stereo not drawn)
91 | 159 to 162 | COc1c(Cl)ccc(-c2cc(N)c(Cl)c(C(=O)N(C)OC)n2)c1F
92 | 159 to 160 | CCC(OCC1CC1)c1ccc(Cl)c2nc3n(c12)CCCN3c1ccc(Cl)cc1Cl (stereo not drawn)
93 | 277 to 278 | Cc1cccc(C)c1CNc1cc(C(=O)NN)cc2c1nc(C)n2C
94 | 83 to 85 | O=C(CCCCCSc1ccc(Cl)cc1)NO
95 | 30 to 37 | O=C1C=CCCC=CCCC=CCCC=C1
96 | 211 to 214 | Cn1c(COc2ccc(CC3SC(=O)NC3=O)cc2)nc2ccc(Oc3ccc(NC(=O)Nc4cccc5ccccc45)cc3)cc21 (stereo not drawn)
97 | 115 | Sc1nnc(Cc2ccc(Cl)cc2)o1
98 | 210 to 215 | COc1cc2oc(=O)c3c(c2cc1NC(C)=O)CCN(CC(C)=O)C3
99 | 75 | CC1(Cc2cc(C(C)(C)C)c(O)c(C(C)(C)C)c2)CCCCC1=O (stereo not drawn)
100 | 127 to 130 | CCc1nc2cc(C(F)(F)F)c(Cl)cc2n1-c1ccc(CCOC(=O)NS(=O)(=O)c2ccccn2)cc1
101 | 185 to 188 | Cc1nn(-c2cc(OC(C)C(=O)NS(C)(=O)=O)c(Cl)cc2Cl)c(=O)n1C(F)F (stereo not drawn)
102 | 215 to 218 | CCCOC(=O)c1c(-c2ccncc2)[nH]c(-c2ccncc2)c1C
103 | 103 to 104 | COC1(c2ccc(C(F)(F)F)cc2CN(Cc2cc(C(F)(F)F)cc(C(F)(F)F)c2)c2nnn(C)n2)CCCCCC1
